Source: patent US20240425452A1
“And” between values parts separate entries of the source, which are not always exact repeats. Equal values may be shown once. Read-outs that look alike come from different tables or passages of the source. Values belong to the compound of their own block, whether it stands above or below them.

Legend:
[1] = Interactions with water molecules, thermogravimetric analysis (TGA); assay type: physicochemical; settings: TGA 30-200° C. at 10° C./min, 1 mM in water with 1% DMSO
Method: TGA was performed on a Perkin Elmer TGA 800 using Pyris software. A temperature scan from 30° C. to 200° C. at a rate of 10° C./min was performed. The isomers were analyzed at a concentration of 1 mM in water (containing 1% DMSO).

[2] = Octanol:water partition coefficient (Log P), HPLC
Method: The octanol:water partition coefficients of the trans and cis isomers of 3-(2-bromo-3,4-dihydroxy-phenyl)-N-(3,4,5-trihydroxy-benzyl)-thioacrylamide were determined.
A solution of 10 mM of the trans isomer in DMSO was prepared and diluted 10-fold in water. A solution of the cis isomer was obtained by exposing the trans isomer solution (5 mL) to 125 lux light at 4° C. for 9 hours resulting in a solution containing more than 90% of the cis isomer. Partitioning in octanol:water was performed as follows: 20 μL of each solution were added to 80 μL of water (saturated by octanol, containing 1 mM of ascorbic acid) and 100 μl of octanol (saturated by water). The obtained solutions were stirred for 1 min and left for incubation at RT for 24 hours. Then, each phase was analyzed by HPLC. The concentration (C) of each isomer was determined using a calibration curve, based on the injection volume of each phase and a response factor of 1 (previously measured).
For all said analyses a volume of 13 μL was injected to the HPLC.

[3] = Stability in biorelevant fluids (FaSSGF, FaSSIF), HPLC; settings: for Percent of isomer in FaSSGF / Percent of isomer in FaSSIF: 250 μM
Method: The stability of the trans and cis isomers of 3-(2-bromo-3,4-dihydroxy-phenyl)-N-(3,4,5-trihydroxy-benzyl)-thioacrylamide in biorelevant fluids was assessed, including Fasted State Simulated Intestinal Fluid (FaSSIF) and Fasted State Simulated Gastric Fluid (FaSSGF).
A solution containing the cis isomer of 3-(2-bromo-3,4-dihydroxy-phenyl)-N-(3,4,5-trihydroxy-benzyl)-thioacrylamide was prepared by exposing a 5 mL solution of the 100% trans isomer at a concentration of 1 mM to 125 lux light for 9 hours at 4° C.
FaSSIF and FaSSGF solutions were prepared according to the manufacturer's instructions.
The cis and trans isomers of 3-(2-bromo-3,4-dihydroxy-phenyl)-N-(3,4,5-trihydroxy-benzyl)-thioacrylamide were diluted in either FaSSIF or FaSSGF solutions to a final concentration of 250 μM. Samples were taken at time 0 and after 4 hours. Samples were frozen in liquid nitrogen, and stored frozen until analysis.

[4] = Exposure of trans isomer to artificial daylight, 1H NMR analysis; assay type: physicochemical; settings: 10% d6-DMSO in buffer pH 7.4, artificial daylight 5 hr
Description: A sample of substantially pure trans isomer of 3-(2-bromo-3,4-dihydroxy-phenyl)-N-(3,4,5-trihydroxy-benzyl)-thioacrylamide in 10% d6-DMSO in a buffer (pH 7.4) was irradiated with an artificial daylight for 5 hr. Thereafter, the solution was characterized by ^1H-NMR analyses.
Thus, differentiating between the two isomers can be performed using ^1H-NMR analysis.

[5] = Exposure of trans isomer in HPCD solution to room lighting, UV analysis; assay type: physicochemical; settings: 0.5 mg/mL in 0.025% phosphoric acid (diluted from HPCD solution), clear glass vials, room lighting several days
[6] = assay type: physicochemical; settings: 1 mM, 125 lux light
Description: An additional assessment of the stability of the trans isomer upon exposure to artificial daylight was made.

[7] = physchem
[8] = simulated intestinal fluid, 0 h
[9] = simulated intestinal fluid, 0.5 h

SMILES: Oc1cc(CNC(=S)C=Cc2ccc(O)c(O)c2Br)cc(O)c1O (single isomer, unassigned; isomer 3) [cis isomer]
Maximum evaporation rate (bound water) [1]: 12%/min | Maximum evaporation rate (free water) [1]: 37 %/min | Temperature of mid evaporation (free water) [1]: 58 °C | Maximum evaporation rate (free water) ([1]; listed as Cis isomer): 37%/min | logP at 24 h [2]: -0.18 | reduction of concentration in FaSSGF ([3]; simulated gastric fluid, 0 to 4 h): ~16% | Percent of isomer in FaSSGF ([3]; simulated gastric fluid, 0 h): 89.05% | Percent of isomer in FaSSGF ([3]; simulated gastric fluid, 0.5 h): 89.07% | Percent of isomer in FaSSGF ([3]; simulated gastric fluid, 4 h): 73.47% | Percent of isomer in FaSSIF [3, 8]: 83.49% | Percent of isomer in FaSSIF [3, 9]: 72.21% | Percent of isomer in FaSSIF ([3]; simulated intestinal fluid, 4 h, listed as Cis): 54.87% | Percent of isomer in FaSSIF ([3]; simulated intestinal fluid, 4 h, listed as cis): ~55%

conversion of the trans isomer to the cis isomer (1H-NMR) [4]: significant conversion | % cis ([6]; 0 hours): 0% | % trans ([6]; 0 hours): 100% | % trans ([6]; 1 hour): 50.5% | % cis ([6]; 2 hours): 64% and 63.7% | % trans ([6]; 2 hours): 36.3% | % cis ([6]; 4 hours): 87.7% | % trans ([6]; 4 hours): 12.3% | % trans ([6]; 5 hours): 8.5% | % cis ([6]; 6 hours): 92.1% | % trans ([6]; 6 hours): 7.9% | Maximum evaporation rate (bound water) [1]: 12%/min | Maximum evaporation rate (free water) [1]: 23 %/min | Temperature of mid evaporation (free water) [1]: 87 °C | Maximum evaporation rate (free water) ([1]; listed as Trans isomer): 23%/min | logP at 24 h [7]: 0.86 | Percent of isomer in FaSSGF ([3]; simulated gastric fluid, 0 h): 100% | Percent of isomer in FaSSGF ([3]; simulated gastric fluid, 0.5 h): 100% | Percent of isomer in FaSSGF ([3]; simulated gastric fluid, 4 h): 100% | stability in FaSSGF ([3]; simulated gastric fluid, up to 4 h): completely stable | reduction of concentration in FaSSIF ([3]; simulated intestinal fluid, 0 to 4 h): ~7% | Percent of isomer in FaSSIF [3, 8]: 98.15% | Percent of isomer in FaSSIF [3, 9]: 96.25% | Percent of isomer in FaSSIF ([3]; simulated intestinal fluid, 4 h): 90.98%
SMILES: Oc1cc(CNC(=S)/C=C/c2ccc(O)c(O)c2Br)cc(O)c1O [trans isomer]
conversion of the trans isomer to the cis isomer [5]: conversion of the trans isomer to the cis isomer
